ChEMBL document CHEMBL1201862, “PubChem BioAssay data set” (2004)
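Five concentrations, 48 hours, 96-well plates. GI50 marks 50% less growth.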 Active and inactive are the calls of the source. No stated cut-off is given here; in the data, active = GI50 up to about 1.1 µM and inactive = higher.

Key:
Experiment in all cases: inhibition of tumour cell growth, NCI panel, 48 h
NCI-H522 = tested on: NCI-H522
MOLT-4 = tested on: MOLT-4
OVCAR-8 = tested on: OVCAR-8
Malme-3M = tested on: Malme-3M
SNB-75 = tested on: SNB-75
HCC 2998 = tested on: HCC 2998
HOP-92 = tested on: HOP-92
SK-OV-3 = tested on: SK-OV-3
ACHN = tested on: ACHN
UO-31 = tested on: UO-31
RXF 631 = tested on: RXF 631
TK-10 = tested on: TK-10
HOP-62 = tested on: HOP-62
SF-268 = tested on: SF-268
786-0 = tested on: 786-0
COLO 205 = tested on: COLO 205
RPMI-8226 = tested on: RPMI-8226
HT-29 = tested on: HT-29
LXFL 529 = tested on: LXFL 529
K562 = tested on: K562
EKVX = tested on: EKVX
A498 = tested on: A498
HOP-18 = tested on: HOP-18
M14 = tested on: M14
SF-539 = tested on: SF-539
CCRF-CEM = tested on: CCRF-CEM
NCI-H23 = tested on: NCI-H23
SK-MEL-5 = tested on: SK-MEL-5
SK-MEL-2 = tested on: SK-MEL-2
KM-20L2 = tested on: KM-20L2
SNB-19 = tested on: SNB-19
DLD-1 = tested on: DLD-1
SW-620 = tested on: SW-620
SR = tested on: SR
HCT-15 = tested on: HCT-15
SNB-78 = tested on: SNB-78
KM12 = tested on: KM12
SK-MEL-28 = tested on: SK-MEL-28
UACC-62 = tested on: UACC-62
SF-295 = tested on: SF-295
UACC-257 = tested on: UACC-257
A549 = tested on: A549
M19-MEL = tested on: M19-MEL
RXF 393 = tested on: RXF 393
IGROV-1 = tested on: IGROV-1
LOX IMVI = tested on: LOX IMVI
U-251 = tested on: U-251
NCI-H226 = tested on: NCI-H226
CAKI-1 = tested on: CAKI-1
OVCAR-4 = tested on: OVCAR-4
NCI-H460 = tested on: NCI-H460
OVCAR-3 = tested on: OVCAR-3
DMS-273 = tested on: DMS-273
HCT-116 = tested on: HCT-116
OVCAR-5 = tested on: OVCAR-5
SN12C = tested on: SN12C
DMS-114 = tested on: DMS-114
XF498 = tested on: XF498
HL-60 = tested on: HL-60

CC(=O)OC1C(COC(N)=O)OC(n2c(-c3ccc(C)cc3)cc(-c3ccccc3)c(C#N)c2=O)C(OC(C)=O)C1OC(C)=O (stereo not drawn)
GI50 (NCI-H522): > 100 µM (inactive) | GI50 (MOLT-4): > 100 µM (inactive) | GI50 (OVCAR-8): > 100 µM (inactive) | GI50 (Malme-3M): > 100 µM (inactive) | GI50 (SNB-75): 44 µM (inactive) | GI50 (HCC 2998): 53.7 µM (inactive) | GI50 (HOP-92): 9.86 µM (inactive) | GI50 (SK-OV-3): > 100 µM (inactive) | GI50 (ACHN): > 100 µM (inactive) | GI50 (UO-31): 71.9 µM (inactive) | GI50 (RXF 631): > 100 µM (inactive) | GI50 (TK-10): > 100 µM (inactive) | GI50 (HOP-62): > 100 µM (inactive) | GI50 (SF-268): > 100 µM (inactive) | GI50 (786-0): > 100 µM (inactive) | GI50 (COLO 205): > 100 µM (inactive) | GI50 (RPMI-8226): > 100 µM (inactive) | GI50 (HT-29): > 100 µM (inactive) | GI50 (LXFL 529): > 100 µM (inactive) | GI50 (K562): > 100 µM (inactive) | GI50 (EKVX): > 100 µM (inactive) | GI50 (A498): > 100 µM (inactive) | GI50 (HOP-18): > 100 µM (inactive) | GI50 (M14): > 100 µM (inactive) | GI50 (SF-539): > 100 µM (inactive) | GI50 (CCRF-CEM): > 100 µM (inactive) | GI50 (NCI-H23): > 100 µM (inactive) | GI50 (SK-MEL-5): > 100 µM (inactive) | GI50 (SK-MEL-2): > 100 µM (inactive) | GI50 (KM-20L2): > 100 µM (inactive) | GI50 (SNB-19): > 100 µM (inactive) | GI50 (DLD-1): > 100 µM (inactive) | GI50 (SW-620): > 100 µM (inactive) | GI50 (SR): > 100 µM (inactive) | GI50 (HCT-15): > 100 µM | GI50 (SNB-78): > 100 µM (inactive) | GI50 (KM12): > 100 µM (inactive) | GI50 (SK-MEL-28): > 100 µM (inactive) | GI50 (UACC-62): > 100 µM (inactive) | GI50 (SF-295): > 100 µM (inactive) | GI50 (UACC-257): > 100 µM (inactive) | GI50 (A549): > 100 µM (inactive) | GI50 (M19-MEL): > 100 µM (inactive) | GI50 (RXF 393): > 100 µM (inactive) | GI50 (IGROV-1): > 100 µM (inactive) | GI50 (LOX IMVI): > 100 µM (inactive) | GI50 (U-251): > 100 µM (inactive) | GI50 (NCI-H226): > 100 µM (inactive) | GI50 (CAKI-1): > 100 µM (inactive) | GI50 (OVCAR-4): > 100 µM (inactive) | GI50 (NCI-H460): 96.2 µM (inactive) | GI50 (OVCAR-3): > 100 µM (inactive) | GI50 (DMS-273): > 100 µM (inactive) | GI50 (HCT-116): > 100 µM (inactive) | GI50 (OVCAR-5): > 100 µM (inactive) | GI50 (SN12C): > 100 µM (inactive)

Clc1ccc(CCN2CCOCC2)c(Cl)c1
GI50 (NCI-H522): > 100 µM (inactive) | GI50 (MOLT-4): > 100 µM (inactive) | GI50 (OVCAR-8): > 100 µM (inactive) | GI50 (Malme-3M): > 100 µM (inactive) | GI50 (SNB-75): 17.6 µM (inactive) | GI50 (HCC 2998): > 100 µM (inactive) | GI50 (HOP-92): > 100 µM (inactive) | GI50 (SK-OV-3): > 100 µM (inactive) | GI50 (ACHN): > 100 µM (inactive) | GI50 (UO-31): > 100 µM (inactive) | GI50 (RXF 631): > 100 µM (inactive) | GI50 (DMS-114): > 100 µM (inactive) | GI50 (HOP-62): > 100 µM (inactive) | GI50 (SF-268): > 100 µM (inactive) | GI50 (786-0): > 100 µM (inactive) | GI50 (COLO 205): > 100 µM (inactive) | GI50 (RPMI-8226): > 100 µM (inactive) | GI50 (HT-29): > 100 µM (inactive) | GI50 (K562): > 100 µM (inactive) | GI50 (EKVX): > 100 µM (inactive) | GI50 (A498): > 100 µM (inactive) | GI50 (HOP-18): > 100 µM (inactive) | GI50 (M14): > 100 µM (inactive) | GI50 (SF-539): > 100 µM (inactive) | GI50 (CCRF-CEM): > 100 µM (inactive) | GI50 (NCI-H23): > 100 µM (inactive) | GI50 (SK-MEL-5): > 100 µM (inactive) | GI50 (SK-MEL-2): > 100 µM (inactive) | GI50 (KM-20L2): > 100 µM (inactive) | GI50 (SNB-19): > 100 µM (inactive) | GI50 (DLD-1): > 100 µM (inactive) | GI50 (SR): > 100 µM (inactive) | GI50 (HCT-15): > 100 µM | GI50 (SNB-78): > 100 µM (inactive) | GI50 (KM12): > 100 µM (inactive) | GI50 (SK-MEL-28): > 100 µM (inactive) | GI50 (UACC-62): 92.5 µM (inactive) | GI50 (XF498): > 100 µM (inactive) | GI50 (SF-295): > 100 µM (inactive) | GI50 (UACC-257): > 100 µM (inactive) | GI50 (HL-60): > 100 µM (inactive) | GI50 (A549): > 100 µM (inactive) | GI50 (M19-MEL): > 100 µM (inactive) | GI50 (RXF 393): 12.5 µM (inactive) | GI50 (IGROV-1): > 100 µM (inactive) | GI50 (U-251): > 100 µM (inactive) | GI50 (CAKI-1): > 100 µM (inactive) | GI50 (OVCAR-4): > 100 µM (inactive) | GI50 (NCI-H460): > 100 µM (inactive) | GI50 (HCT-116): > 100 µM (inactive) | GI50 (OVCAR-5): > 100 µM (inactive) | GI50 (SN12C): > 100 µM (inactive)
